{"source": "paper PMC11995724", "about": "“Antibiotic target discovery by integrated phenotypic and activity-based profiling of electrophilic fragments” (Cell chemical biology, 2025)", "assay": "in vitro", "settings": "human, hek293t cells", "data": [{"compound": "CCCCNC(=O)C(C#N)=Cc1ccncc1", "note": "[8-P17, N-butyl-2-cyano-3-(pyridin-4-yl)prop-2-enamide]", "values": [{"measurement": "viability at 48 h, 25 µM", "value": 115, "unit": "%"}]}, {"compound": "C=CC(=O)N(Cc1ccc(-n2cncn2)cc1)C1CC1", "note": "[3-J11, N-cyclopropyl-N-{[4-(1H-1,2,4-triazol-1-yl)phenyl]methyl}prop-2-enamide]", "values": [{"measurement": "viability at 48 h, 25 µM", "value": 40.7, "unit": "%"}]}, {"compound": "CC(Cl)C(=O)N1CCCC(CC(=O)OC(C)(C)C)CC1", "note": "(centres unmarked) [6-P18, tert-butyl 2-[1-(2-chloropropanoyl)azepan-4-yl]acetate]", "values": [{"measurement": "viability at 48 h, 25 µM", "value": 93.9, "unit": "%"}]}, {"compound": "C=CC(=O)NC1(Cc2ccccc2)CC1", "note": "[3-P13, N-(1-benzylcyclopropyl)prop-2-enamide]", "values": [{"measurement": "viability at 48 h, 25 µM", "value": 61.5, "unit": "%"}]}, {"compound": "C=CC(=O)Nc1ccc(C(N)=O)cc1C", "note": "[1-P06, 3-methyl-4-(prop-2-enamido)benzamide]", "values": [{"measurement": "viability at 48 h, 25 µM", "value": 84.8, "unit": "%"}]}, {"compound": "CC(Cl)C(=O)NC(C)(C(N)=O)c1cccc(Cl)c1", "note": "(centres unmarked) [5-J17, 2-(3-chlorophenyl)-2-(2-chloropropanamido)propanamide]", "values": [{"measurement": "viability at 48 h, 25 µM", "value": 125, "unit": "%"}]}, {"compound": "C=CC(=O)NCc1nc(C2CC2)oc1C", "note": "[2-P13, N-[(2-cyclopropyl-5-methyl-1,3-oxazol-4-yl)methyl]prop-2-enamide]", "values": [{"measurement": "viability at 48 h, 25 µM", "value": 52.6, "unit": "%"}]}, {"compound": "Cc1cc(C(=O)CCl)c(C)n1-c1ccc(Cl)c(C(F)(F)F)c1", "note": "[10-L18, 2-chloro-1-{1-[4-chloro-3-(trifluoromethyl)phenyl]-2,5-dimethyl-1H-pyrrol-3-yl}ethan-1-one]", "values": [{"measurement": "viability at 48 h, 25 µM", "value": 0.747, "unit": "%"}]}, {"compound": "Cc1ccc(C(=O)CCl)o1", "note": "[10-A09, 2-chloro-1-(5-methylfuran-2-yl)ethan-1-one]", "values": [{"measurement": "viability at 48 h, 25 µM", "value": 48.3, "unit": "%"}]}, {"compound": "CC(Cl)C(=O)N(C)C1CCCc2c1cnn2C", "note": "(centres unmarked) [6-L16, 2-chloro-N-methyl-N-(1-methyl-4,5,6,7-tetrahydro-1H-indazol-4-yl)propanamide]", "values": [{"measurement": "viability at 48 h, 25 µM", "value": 112, "unit": "%"}]}, {"compound": "C=CC(=O)NCC(=O)N1CCCO1", "note": "[1-H05, N-[2-(1,2-oxazolidin-2-yl)-2-oxoethyl]prop-2-enamide]", "values": [{"measurement": "viability at 48 h, 25 µM", "value": 98.5, "unit": "%"}]}, {"compound": "NC(=O)CCN(C(=O)CCl)c1ccc(F)cc1", "note": "[5-C03, 3-[2-chloro-N-(4-fluorophenyl)acetamido]propanamide]", "values": [{"measurement": "viability at 48 h, 25 µM", "value": 1.62, "unit": "%"}]}, {"compound": "C=CC(=O)NCc1ccnc(-n2cncn2)c1", "note": "[3-B18, N-{[2-(1H-1,2,4-triazol-1-yl)pyridin-4-yl]methyl}prop-2-enamide]", "values": [{"measurement": "viability at 48 h, 25 µM", "value": 92.7, "unit": "%"}]}, {"compound": "CCc1ccc(Cc2cnc(NC(=O)CCl)s2)cc1", "note": "[4-F19, 2-chloro-N-{5-[(4-ethylphenyl)methyl]-1,3-thiazol-2-yl}acetamide]", "values": [{"measurement": "viability at 48 h, 25 µM", "value": 0.0785, "unit": "%"}]}, {"compound": "C=CC(=O)NCc1cccc(-c2nnc[nH]2)c1", "note": "[1-I18, N-{[3-(4H-1,2,4-triazol-3-yl)phenyl]methyl}prop-2-enamide]", "values": [{"measurement": "viability at 48 h, 25 µM", "value": 172, "unit": "%"}]}, {"compound": "COc1ccc(N(Cc2cccs2)C(=O)CCl)cc1", "note": "[5-O17, 2-chloro-N-(4-methoxyphenyl)-N-[(thiophen-2-yl)methyl]acetamide]", "values": [{"measurement": "viability at 48 h, 25 µM", "value": 0.692, "unit": "%"}]}, {"compound": "C=CC(=O)NC(c1ccccc1)C1CCC1", "note": "(centres unmarked) [1-G05, N-[cyclobutyl(phenyl)methyl]prop-2-enamide]", "values": [{"measurement": "viability at 48 h, 25 µM", "value": 76.5, "unit": "%"}]}, {"compound": "CC(NC(=O)CCl)c1cn(C)c2cc(Cl)ccc12", "note": "(centres unmarked) [5-E11, 2-chloro-N-[1-(6-chloro-1-methyl-1H-indol-3-yl)ethyl]acetamide]", "values": [{"measurement": "viability at 48 h, 25 µM", "value": 0.196, "unit": "%"}]}, {"compound": "O=C(CCl)COc1ccc(Cl)cc1", "note": "[10-M17, 1-chloro-3-(4-chlorophenoxy)propan-2-one]", "values": [{"measurement": "viability at 48 h, 25 µM", "value": 26.1, "unit": "%"}]}, {"compound": "C=CC(=O)N[C@@H](C)c1ccccc1OC", "note": "[1-K06, N-[(1S)-1-(2-methoxyphenyl)ethyl]prop-2-enamide]", "values": [{"measurement": "viability at 48 h, 25 µM", "value": 84.3, "unit": "%"}]}, {"compound": "Cc1ccc(-c2cc(NC(=O)CCl)n(-c3ccccc3)n2)cc1", "note": "[4-C06, 2-chloro-N-[3-(4-methylphenyl)-1-phenyl-1H-pyrazol-5-yl]acetamide]", "values": [{"measurement": "viability at 48 h, 25 µM", "value": -0.283, "unit": "%"}]}, {"compound": "CC(Cl)C(=O)NC1CC=CCC1", "note": "(centres unmarked) [6-K21, 2-chloro-N-(cyclohex-3-en-1-yl)propanamide]", "values": [{"measurement": "viability at 48 h, 25 µM", "value": 114, "unit": "%"}]}, {"compound": "O=C(CCl)Nc1ccccc1S(=O)(=O)C(F)F", "note": "[4-B18, 2-chloro-N-(2-difluoromethanesulfonylphenyl)acetamide]", "values": [{"measurement": "viability at 48 h, 25 µM", "value": 38.2, "unit": "%"}]}]}
